Data as given in PMC9844952 (Molecular Imaging and Biology, 2023).
Values joined by “and” are separate entries in the source; they are usually repeats but may differ in a detail not shown here. Equal entries are not always repeated. Square brackets hold non-standard residues; d marks the D form. Peptide text beside a SMILES is read from it. * marks the point of attachment. NODAGA = O=C(O)CN1CCN(CC(=O)O)CCN(C(CCC(=O)*)C(=O)O)CC1; Tic = O=C(O)[C@@H]1Cc2ccccc2CN1

Assays:
[1] = tested on: dopaminergic (DA) neurons; test: 6-OHDA partial lesion rat model: rotation and DA neuron loss
[2] = molecular target: Glucocorticoid receptor (GR) (Mus musculus, UniProt P06537); test: 18F-YJH08 biodistribution in mice; conditions: 30 min post injection, PC3 renal capsule tumors
Chain of Glucocorticoid receptor (GR) (P06537 whole entry): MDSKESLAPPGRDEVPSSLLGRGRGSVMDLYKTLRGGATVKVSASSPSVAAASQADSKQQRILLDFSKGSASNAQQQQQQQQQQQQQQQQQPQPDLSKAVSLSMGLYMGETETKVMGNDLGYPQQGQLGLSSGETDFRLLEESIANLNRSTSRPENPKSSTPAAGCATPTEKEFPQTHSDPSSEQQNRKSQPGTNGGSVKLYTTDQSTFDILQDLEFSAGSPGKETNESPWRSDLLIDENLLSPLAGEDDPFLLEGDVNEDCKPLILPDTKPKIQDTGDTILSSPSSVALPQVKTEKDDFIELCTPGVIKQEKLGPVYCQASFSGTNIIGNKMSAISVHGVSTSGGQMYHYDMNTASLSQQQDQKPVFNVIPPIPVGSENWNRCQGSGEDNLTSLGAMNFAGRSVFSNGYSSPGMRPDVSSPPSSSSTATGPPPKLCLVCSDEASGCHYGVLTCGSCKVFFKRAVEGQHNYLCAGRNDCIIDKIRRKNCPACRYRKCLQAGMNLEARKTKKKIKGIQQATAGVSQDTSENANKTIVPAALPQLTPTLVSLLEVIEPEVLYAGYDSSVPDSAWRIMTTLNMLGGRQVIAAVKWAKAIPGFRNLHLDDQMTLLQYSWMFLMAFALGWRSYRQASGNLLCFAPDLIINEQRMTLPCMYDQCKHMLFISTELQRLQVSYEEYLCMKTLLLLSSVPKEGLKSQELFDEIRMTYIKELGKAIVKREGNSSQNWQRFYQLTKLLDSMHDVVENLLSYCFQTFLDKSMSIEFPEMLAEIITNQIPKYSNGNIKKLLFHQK

[3] = 64Cu-NODAGA-CG34 PET/CT in bleomycin-induced lung injury; type: in vivo, mouse; conditions: mouse, lung, PET
CMKLR1 = CMKLR1 (Mus musculus, UniProt P97468); test: as above; type: in vivo
Chain of CMKLR1 (P97468 whole entry): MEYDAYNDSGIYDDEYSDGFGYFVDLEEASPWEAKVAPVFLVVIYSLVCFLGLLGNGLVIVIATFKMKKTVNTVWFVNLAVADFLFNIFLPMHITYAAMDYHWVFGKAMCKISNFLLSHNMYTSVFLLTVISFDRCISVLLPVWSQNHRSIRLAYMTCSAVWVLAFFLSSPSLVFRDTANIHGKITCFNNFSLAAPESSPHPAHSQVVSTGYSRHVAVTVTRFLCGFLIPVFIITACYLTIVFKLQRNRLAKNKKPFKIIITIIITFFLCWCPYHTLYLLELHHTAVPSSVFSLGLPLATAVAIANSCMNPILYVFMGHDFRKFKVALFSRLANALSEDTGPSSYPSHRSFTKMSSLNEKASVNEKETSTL

PSMA = PSMA (Homo sapiens, UniProt Q04609); test: automated lesion detection on 68Ga PSMA PET; type: in vivo; conditions: 17 PSMA-positive lesions
Chain of PSMA (Q04609 whole entry): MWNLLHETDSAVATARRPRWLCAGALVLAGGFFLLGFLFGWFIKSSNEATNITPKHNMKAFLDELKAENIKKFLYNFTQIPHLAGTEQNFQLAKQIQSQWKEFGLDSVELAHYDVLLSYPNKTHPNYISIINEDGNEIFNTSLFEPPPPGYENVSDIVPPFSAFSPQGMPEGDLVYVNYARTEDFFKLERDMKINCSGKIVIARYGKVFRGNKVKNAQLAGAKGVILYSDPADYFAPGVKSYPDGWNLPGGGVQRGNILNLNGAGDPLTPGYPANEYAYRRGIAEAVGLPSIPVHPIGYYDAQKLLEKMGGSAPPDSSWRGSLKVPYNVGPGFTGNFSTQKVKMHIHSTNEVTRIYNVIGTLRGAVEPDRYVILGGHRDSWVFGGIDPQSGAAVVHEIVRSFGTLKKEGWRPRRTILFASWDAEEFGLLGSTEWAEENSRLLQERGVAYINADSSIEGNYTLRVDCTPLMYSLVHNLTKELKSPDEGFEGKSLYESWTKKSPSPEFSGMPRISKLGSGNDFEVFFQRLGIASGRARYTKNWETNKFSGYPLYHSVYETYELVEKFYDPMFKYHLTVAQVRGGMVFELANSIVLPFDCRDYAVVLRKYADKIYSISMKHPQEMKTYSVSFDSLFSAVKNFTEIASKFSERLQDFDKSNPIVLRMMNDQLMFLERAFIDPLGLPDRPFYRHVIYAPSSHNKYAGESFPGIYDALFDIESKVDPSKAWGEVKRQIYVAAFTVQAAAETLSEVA

aminopeptidase N (APN) = test: kinetic parameters of probes for APN; type: biochemical
UMRC3 cells = test: [18F]FGln uptake in UMRC3 cells; type: cell-based, human
ccRCC lung tumors = test: [18F]FGln PET/MRI of ccRCC lung tumors; parameters: species or system nude mice; conditions: mouse, in vivo
myeloperoxidase (MPO) = test: D-mannose in transient MCAO stroke with heMAMP MRI; type: in vivo, C57BL/6J mice
[4] = SWIR ratiometric imaging of ICG clearance; conditions: mean
[5] = molecular target: deoxycytidine kinase (dCK) (Mus musculus, UniProt P43346); test: TRE-515 treatment of EAE mouse models of MS; type: in vivo
Chain of deoxycytidine kinase (dCK) (P43346 whole entry): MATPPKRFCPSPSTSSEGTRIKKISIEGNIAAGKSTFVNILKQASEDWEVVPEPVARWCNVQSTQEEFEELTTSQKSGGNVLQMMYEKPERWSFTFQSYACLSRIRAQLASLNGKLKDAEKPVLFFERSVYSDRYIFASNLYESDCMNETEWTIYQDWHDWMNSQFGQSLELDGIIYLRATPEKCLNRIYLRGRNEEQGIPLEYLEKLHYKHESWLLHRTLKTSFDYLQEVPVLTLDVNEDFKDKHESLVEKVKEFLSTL

CSF1R = CSF1R (Mus musculus, UniProt P09581); test: [18F]1 brain uptake in control and LPS-treated mice; type: in vivo
Chain of CSF1R (P09581 20-977): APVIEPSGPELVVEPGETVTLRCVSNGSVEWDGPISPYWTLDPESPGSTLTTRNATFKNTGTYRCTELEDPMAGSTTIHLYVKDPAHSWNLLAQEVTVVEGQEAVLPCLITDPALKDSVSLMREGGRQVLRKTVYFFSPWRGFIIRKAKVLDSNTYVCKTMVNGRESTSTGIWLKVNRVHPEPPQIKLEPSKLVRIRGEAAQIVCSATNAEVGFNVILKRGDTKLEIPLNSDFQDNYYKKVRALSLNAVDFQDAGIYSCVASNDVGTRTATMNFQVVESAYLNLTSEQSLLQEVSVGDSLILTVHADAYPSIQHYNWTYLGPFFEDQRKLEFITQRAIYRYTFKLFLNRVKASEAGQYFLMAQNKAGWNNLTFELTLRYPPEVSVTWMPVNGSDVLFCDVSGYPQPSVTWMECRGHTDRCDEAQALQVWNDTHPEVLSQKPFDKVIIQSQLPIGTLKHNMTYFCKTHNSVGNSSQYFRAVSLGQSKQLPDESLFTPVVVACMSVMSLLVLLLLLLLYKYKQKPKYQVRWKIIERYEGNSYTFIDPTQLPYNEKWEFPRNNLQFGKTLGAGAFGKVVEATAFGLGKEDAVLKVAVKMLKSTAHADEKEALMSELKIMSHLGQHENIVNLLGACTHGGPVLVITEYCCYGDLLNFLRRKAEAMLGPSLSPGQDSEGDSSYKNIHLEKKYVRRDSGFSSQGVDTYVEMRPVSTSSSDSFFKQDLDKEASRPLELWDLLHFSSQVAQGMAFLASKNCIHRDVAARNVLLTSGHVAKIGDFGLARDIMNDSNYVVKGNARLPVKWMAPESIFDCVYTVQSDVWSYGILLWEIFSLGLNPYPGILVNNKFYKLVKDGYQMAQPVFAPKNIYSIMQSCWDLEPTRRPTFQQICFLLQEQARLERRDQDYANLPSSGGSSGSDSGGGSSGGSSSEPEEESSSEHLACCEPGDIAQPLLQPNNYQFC

K+ channels = test: first-in-human [18F]3F4AP brain PET; type: in vivo
IDO1 = IDO1 (Mus musculus, UniProt P28776); test: small animal PET in B16F10 mouse models; type: in vivo
Chain of IDO1 (P28776 whole entry): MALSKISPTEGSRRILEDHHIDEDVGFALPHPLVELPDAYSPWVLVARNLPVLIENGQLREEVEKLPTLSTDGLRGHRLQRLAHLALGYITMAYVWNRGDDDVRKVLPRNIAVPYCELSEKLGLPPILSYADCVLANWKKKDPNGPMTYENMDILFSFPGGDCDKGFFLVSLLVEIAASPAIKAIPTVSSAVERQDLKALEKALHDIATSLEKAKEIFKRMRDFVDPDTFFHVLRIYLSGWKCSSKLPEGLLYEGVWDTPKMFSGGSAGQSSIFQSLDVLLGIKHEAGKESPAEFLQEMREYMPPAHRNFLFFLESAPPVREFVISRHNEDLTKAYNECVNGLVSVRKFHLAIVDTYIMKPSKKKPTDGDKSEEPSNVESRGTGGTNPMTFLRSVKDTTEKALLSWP

HER2 and EGFRvIII = test: SNIPR-PET T cell imaging in dual xenografts; conditions: in vivo
PDGFR-β = type: in vivo, mouse; conditions: imatinib for 3 weeks
HER2 = HER2 (Homo sapiens, UniProt P04626); test: 89Zr-trastuzumab PET in NCIN87 xenografts with metformin; type: in vivo, athymic nude mice
Chain of HER2 (P04626 23-1255): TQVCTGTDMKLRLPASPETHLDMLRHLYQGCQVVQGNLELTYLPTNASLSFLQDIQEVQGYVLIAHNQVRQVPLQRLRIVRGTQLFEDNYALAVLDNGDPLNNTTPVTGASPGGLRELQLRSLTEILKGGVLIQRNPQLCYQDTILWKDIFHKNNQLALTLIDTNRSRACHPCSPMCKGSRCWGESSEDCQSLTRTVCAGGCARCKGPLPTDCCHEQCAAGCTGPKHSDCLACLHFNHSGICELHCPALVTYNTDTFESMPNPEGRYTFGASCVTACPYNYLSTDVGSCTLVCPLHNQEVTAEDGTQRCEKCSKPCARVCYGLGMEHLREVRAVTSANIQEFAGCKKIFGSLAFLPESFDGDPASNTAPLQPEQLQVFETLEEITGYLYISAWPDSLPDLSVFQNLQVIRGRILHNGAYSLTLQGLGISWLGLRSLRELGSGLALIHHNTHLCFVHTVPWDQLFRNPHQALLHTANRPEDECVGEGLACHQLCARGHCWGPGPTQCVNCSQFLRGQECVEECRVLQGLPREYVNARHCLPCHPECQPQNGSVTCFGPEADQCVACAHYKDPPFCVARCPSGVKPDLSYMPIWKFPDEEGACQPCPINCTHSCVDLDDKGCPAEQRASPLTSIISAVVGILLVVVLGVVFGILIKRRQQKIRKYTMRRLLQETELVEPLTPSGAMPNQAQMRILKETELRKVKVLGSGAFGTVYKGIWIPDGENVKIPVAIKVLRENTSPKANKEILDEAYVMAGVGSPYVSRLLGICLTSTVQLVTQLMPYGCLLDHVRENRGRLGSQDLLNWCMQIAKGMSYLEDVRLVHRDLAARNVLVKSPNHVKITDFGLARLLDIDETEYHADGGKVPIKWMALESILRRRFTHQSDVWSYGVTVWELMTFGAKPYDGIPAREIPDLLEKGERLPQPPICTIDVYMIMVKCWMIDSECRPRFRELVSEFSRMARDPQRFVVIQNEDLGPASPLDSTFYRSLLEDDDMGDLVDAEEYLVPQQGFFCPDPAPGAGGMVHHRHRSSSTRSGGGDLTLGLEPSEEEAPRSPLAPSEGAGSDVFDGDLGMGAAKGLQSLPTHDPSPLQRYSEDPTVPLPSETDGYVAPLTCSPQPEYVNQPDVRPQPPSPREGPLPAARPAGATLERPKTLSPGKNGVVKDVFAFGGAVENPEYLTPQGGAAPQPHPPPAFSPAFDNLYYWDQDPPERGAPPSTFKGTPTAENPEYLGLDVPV

EGFR = EGFR (Homo sapiens, UniProt P00533); test: 89Zr-panitumumab PET in A431 xenografts with metformin; type: in vivo, athymic nude mice; conditions: acute metformin
[6] = tested on: YUMM1.7 melanoma xenografts; test: BRAF/MEK inhibition in YUMM1.7 melanoma xenografts; type: in vivo, mice; conditions: for production of 13C-lactate from 13C-glucose: 24 h after treatment; for tumor growth vs control group: mouse, in vivo
[7] = tumor boron content by ICP-MS; type: in vivo, mice; conditions: 3h after intraperitoneal injection
OX40 [8] = molecular target: T1, OX40 (Homo sapiens, UniProt P43489); test: [89Zr]huOX40mAb binding to primary human T cells; type: cell-based
T1 sequence (P43489 29-277): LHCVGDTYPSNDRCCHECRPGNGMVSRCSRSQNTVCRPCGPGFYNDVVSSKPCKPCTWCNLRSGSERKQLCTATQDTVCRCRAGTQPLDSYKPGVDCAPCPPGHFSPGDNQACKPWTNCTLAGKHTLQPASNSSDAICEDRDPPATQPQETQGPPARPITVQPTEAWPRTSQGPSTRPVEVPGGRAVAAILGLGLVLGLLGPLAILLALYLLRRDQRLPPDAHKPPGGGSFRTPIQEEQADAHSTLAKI

OX40 [9] = molecular target: T1, OX40; test: [89Zr]huOX40mAb binding to OX40+ HEK293 cells; type: cell-based
OX40 [10] = molecular target: T1, OX40; test: [89Zr]huOX40mAb PET in HEK293 tumor mice; type: in vivo, NSG mice; conditions: 72 hours p.i., PET ROI
Disialoganglioside GD2 = test: Serial PET/CT of 89Zr-dinutuximab in B78 melanoma mice; type: in vivo, mouse
[11] = 12 μg 6-OHDA into right striatum

NCCc1cc(O)c(O)cc1O [6-OHDA, 6-hydroxydopamine]
APO-induced rotations, 1st week [1, 11]: 6.4 ± 2.4 turns/ min
APO-induced rotations, 3rd week [1, 11]: 11.3±4.3 turns/ min
DA neurons loss in treated right striatum ([1]; [18F]D6-FP-(+)-DTBZ PET, 4th week): approximately 60%

COc1cccc2c1-c1ccc3c(c1C(Cc1ccc([18F])cc1)O2)C(C)=CC(C)(C)N3 (centres unmarked) [18F-YJH08]
tumoral uptake [2]: ~ 2 % ID/g

CC(C)C[C@H](NC(=O)[C@H](Cc1ccccc1)NC(=O)[C@@H](Cc1ccc(O)cc1)NC(=O)CCC(C(=O)O)N1CCN(CC(=O)O)CCN(CC(=O)O)CC1)C(=O)N1CCC[C@H]1C(=O)N[C@H](CO)C(=O)N[C@@H](CCC(N)=O)C(=O)N[C@@H](Cc1ccccc1)C(=O)N[C@H](C)C(=O)N1Cc2ccccc2C[C@H]1C(=O)N[C@@H](CO)C(=O)O (some centres unmarked) [64Cu-NODAGA-CG34, metal not drawn] ({NODAGA}-[dY]FLP[dS]QF[dA][Tic]S-OH; N-terminus and C-terminus assumed)
tissue uptake ([3]; lung %ID/gmax, 2 weeks): 3.35 ± 0.47 %ID/g
tissue uptake ([3]; lung %ID/gmax, 4 weeks): 1.96 ± 0.19 %ID/g
tissue uptake ([3]; lung %ID/gmax, baseline): 1.38 ± 0.1 %ID/g
tissue uptake ([3]; lung %ID/gmean, 1 week after bleomycin): 2.47 ± 0.67 %ID/g
tissue uptake ([3]; lung %ID/gmean, 2 weeks): 1.83 ± 0.3 %ID/g
tissue uptake ([3]; lung %ID/gmean, 4 weeks): 1.03 ± 0.1 %ID/g
tissue uptake ([3]; lung %ID/gmean, baseline): 0.7 ± 0.06 %ID/g
uptake on co-injection of excess NODAGA-CG34 (CMKLR1; 100x molar excess non-radiolabeled): near-completely blocked
lung %ID/gmax, 1 week after bleomycin (CMKLR1; PET): 4.04±0.87 %ID/g

O=C([O-])CN(CCN(CC(=O)[O-])Cc1cc(CCC(=O)NCCCCCC(=O)NCCCC[C@H](NC(=O)N[C@@H](CCC(=O)O)C(=O)O)C(=O)O)ccc1[O-])Cc1cc(CCC(=O)O)ccc1[O-].[68Ga+3].[OH3+] [68Ga PSMA]
diagnostic sensitivity of automated lesion detection (PSMA): 100%

C[C@H](N)C(N)=O [Ala-NH2]
Km (aminopeptidase N (APN)): 15.7 ± 4.4 mM

O=C(Cc1cccc(OC(F)(F)F)c1)Nc1ccc(CCCCc2nnc(NC(=O)Cc3ccccn3)s2)nn1 [CB-839]
effect on [18F]FGln cellular uptake (UMRC3 cells): increased
effect on [18F]FGln retention in lung tumors (ccRCC lung tumors): did not change significantly

OC[C@H]1OC(O)[C@@H](O)[C@@H](O)[C@@H]1O (stereo partly drawn) [D-mannose]
neurological deficit scores vs PBS (myeloperoxidase (MPO); 450mg/kg i.p. daily): improved neurological deficit scores
heMAMP MRI enhancement in the infarcted area (myeloperoxidase (MPO); day 10, p=0.0027): decreased

CC1(C)C(/C=C/C=C/C=C/C=C2\N(CCCCS(=O)(=O)O)c3ccc4ccccc4c3C2(C)C)=[N+](CCCCS(=O)(=O)[O-])c2ccc3ccccc3c21 [ICG, indocyanine green]
blood half-life, isoflurane ([4]; sd 0.28, n=4): 2.56 min
blood half-life, awake ([4]; sd 0.73, n=4): 2.81 min
liver clearance, isoflurane ([4]; sd 2.50, n=3): 18.44 min
liver clearance, awake ([4]; sd 3.29, n=9): 18.71 min

COc1ccc(-c2nc([C@@H](C)Sc3nc(N)cc(N)n3)c(C)s2)cc1OCCN1CCOCC1 [TRE-515]
clinical symptoms ([5]; MOG35-55 and PLP139-151 EAE models): limited clinical symptoms
side effects ([5]; both MS mouse models): no observable side effects
plasma levels of deoxycytidine ([5]; mouse, in vivo): increased

Cc1cccc(COc2ccccc2CN(CC[C@H](N)C(=O)O)Cc2ccccc2OCc2cccc(C)c2)c1 [V-9302]
reduction of [18F]FGln cell uptake (UMRC3 cells; treatment with inhibitor): 20-50%

CC1CCN(c2cc(N3CCN(CC[18F])CC3)ccc2NC(=O)c2cc(C#N)c[nH]2)CC1 [[18F]1]
peak brain uptake in control mice (CSF1R; 5 min post-administration): 3.6 %ID/g tissue
increase in brain uptake in LPS group (CSF1R; LPS-treated vs control mice): 46%

Nc1ccncc1[18F] [[18F]3F4AP]
VT in gray matter (K+ channels; 1T model): 1.52-1.69 mL.cm^-3
VT in white matter (K+ channels; 1T model): 1.22-1.29 mL.cm^-3
VT in MS lesions (K+ channels; 2T model, two lesions of one MS subject): 2.24 mL. cm^-3 and 2.26 mL. cm^-3
whole-blood to plasma ratio (K+ channels; after 15 min): 0.88 ± 0.01
radioactivity corresponding to parent compound (K+ channels; plasma, 90 min post injection, Radio-HPLC, average): 31%
peak SUV in gray matter (K+ channels; ~3 min, control subjects): 5-7 SUV
peak SUV in white matter (K+ channels; ~3 min, control subjects): 2-4 SUV

COc1ccc2[nH]cc(C[C@H](N)C(=O)O)c2c1[18F] [[18F]-L-T13, 4-F-5-OMe-tryptophan]
tumor uptake (IDO1): 9.57±0.26 %ID/g
tumor/muscle uptake ratio (IDO1): 4.57±0.2

NC(=O)[C@H]([18F])C[C@H](N)C(=O)O [[18F]FGln, (2S,4R)-4-[18F]fluoroglutamine]
cell uptake in UMRC3 vs HEK293 cells (UMRC3 cells): 2 fold
reduction of tracer cell uptake by excess glutamine (UMRC3 cells; excess glutamine in the media): 60-90%
retention in lung tumors vs muscle (ccRCC lung tumors): 2 fold
retention in lung tumors vs normal lung tissue (ccRCC lung tumors): 1.5 fold

Nc1nc2c(ncn2CCC(CO)C[18F])c(=O)[nH]1 (centres unmarked) [[18F]FHBG]
signal in antigen-expressing tumors vs controls (HER2 and EGFRvIII): > 10 fold

CC(=O)NCC1CN(c2ccc(N3CCSCC3)c([18F])c2)C(=O)O1 (centres unmarked) [[18F]sutezolid]
brain penetration in TB meningitis (mouse, in vivo): penetrated the brain parenchyma
penetration in lung lesions vs unaffected lung (pulmonary TB, P< 0.05): significantly lower penetration in the lung lesions

Cc1ccc(NC(=O)c2ccc(CN3CCN(C)CC3)cc2)cc1Nc1nccc(-c2cccnc2)n1 [imatinib]
accumulation of Cy7-BiPPB in mutant kidneys under treatment (PDGFR-β): decreased

CN(C)C(=N)N=C(N)N [metformin]
lowering of [89Zr]Zr-DFO-Trastuzumab tumor uptake by daily metformin (HER2; 200 mg/kg ip for 11 consecutive days): 3.7 fold
%ID/g of 89Zr-labeled Trastuzumab, control vs acute metformin tumors (HER2; 24 h post-injection, metformin 250 mg/kg oral): ~ 1.6
uptake of 89Zr-labeled Panitumumab, control vs metformin-treated tumors (EGFR): ~ 1.8

CC(=O)Nc1cccc(-n2c(=O)n(C3CC3)c(=O)c3c(Nc4ccc(I)cc4F)n(C)c(=O)c(C)c32)c1 [trametinib]
production of 13C-lactate from 13C-glucose [6]: significantly reduced
tumor growth vs control group [6]: significantly delayed

CCCS(=O)(=O)Nc1ccc(F)c(C(=O)c2c[nH]c3ncc(-c4ccc(Cl)cc4)cc23)c1F [vemurafenib]
production of 13C-lactate from 13C-glucose [6]: significantly reduced
tumor growth vs control group [6]: significantly delayed

boronophenylalanine-fructose [BPA-Fr]
boron content of the tumor [7]: around 42±13 ppm

B1: [89Zr]huOX40mAb: DFO-conjugated human OX40 mAb Ivuxolimab labeled with 89Zr (conjugate, chains of the INN, looked up)
VH: EVQLVESGGGLVQPGGSLRLSCAASGFTFSSYSMNWVRQAPGKGLEWVSYISSSSSTIDYADSVKGRFTISRDNAKNSLYLQMNSLRDEDTAVYYCARESGWYLFDYWGQGTLVTVSS
VL: DIQMTQSPSSLSASVGDRVTITCRASQGISSWLAWYQQKPEKAPKSLIYAASSLQSGVPSRFSGSGSGTDFTLTISSLQPEDFATYYCQQYNSYPPTFGGGTKVEIK
modifications: DFO; 89Zr
binding to activated (OX40+) vs resting T cells (OX40 [8]): 10.8 fold
reduction of binding to activated T cells by blocking (OX40 [8]; 25-fold excess cold mAb): 88%
binding to OX40+ HEK293 vs parental HEK293 cells (OX40 [9]): 26.8 fold
reduction of binding to OX40+ HEK293 cells by blocking (OX40 [9]; 25-fold excess cold mAb): 87%
uptake in HEK293 tumors (OX40 [10]): 2.5 ± 0.7 %ID/g

B2: 89Zr-dinutuximab: anti-GD2 mAb dinutuximab radiolabeled via DFO (antibody, chains of the INN, looked up, V domains shown)
VH: EVQLLQSGPELEKPGASVMISCKASGSSFTGYNMNWVRQNIGKSLEWIGAIDPYYGGTSYNQKFKGRATLTVDKSSSTAYMHLKSLTSEDSAVYYCVSGMEYWGQGTSVTVSS
VL: EIVMTQSPATLSVSPGERATLSCRSSQSLVHRNGNTYLHWYLQKPGQSPKLLIHKVSNRFSGVPDRFSGSGSGTDFTLKISRVEAEDLGVYFCSQSTHVPPLTFGAGTKLELK
modifications: 89Zr-DFO
tumor uptake (Disialoganglioside GD2; 4 hours, PET): 6.5 %ID/g
tumor uptake (peak) (Disialoganglioside GD2; 71 hours, PET): 12 %ID/g
blood uptake (Disialoganglioside GD2; 170 hours): < 2 %ID/g
liver uptake (Disialoganglioside GD2; 170 hours): ~ 6 %ID/g
normal tissues uptake except liver (Disialoganglioside GD2; 170 hours): < 5 %ID/g
normal tissues uptake (Disialoganglioside GD2; initial): < 11 %ID/g
